Laboratory results from patent US10526581B2, “Modulation of cardiac stem-progenitor cell differentiation, assays and uses thereof” (priority 2013, dated 2020).

Columns and labels:
mouse heart [1] = assay: ISO injury in CM-recombined MerCreMer-ZEG and MerCreMer:RYP mice (lineage tracing of new CMs); format: in vivo; settings: 28 days after ISO
From the text: BrdU labeling and Ki67 expression by itself cannot establish whether the new CMs are generated by the reported division of pre-existing adult CMs or by the activation and ensuing differentiation of a stem-progenitor cell compartment. To specifically address this issue, we traced the cell lineage of the new CMs. We generated double-transgenic mice (MerCreMer-ZEG) (Hsieh et al., 2007; Loffredo et al., 2011) in which, upon tamoxifen administration, β-galactosidase (β-Gal) is replaced by enhanced green fluorescent protein (GFP) exclusively in cardiac cells which have already activated the Myh6 gene (and, therefore, the transgene carrying the cre recombinase gene) which are either post-mitotic CMs or amplifying cells already committed to the CM lineage (i.e., immature myocytes/myocyte precursors).
In tamoxifen-naïve MerCreMer-ZEG mice, 99±0.2% of the CMs express β-Gal and are negative for GFP (the leakage of the Myh6-Cre construct in these animals is ˜0.2%). Tamoxifen correctly switched β-Gal to GFP in CMs (FIG. 15A-C). […] In this setting, if new CMs (BrdU^pos) originated from division of pre-existing CMs they should be more GFP^pos and the ratio between GFP^pos and β-Gal^pos CMs should remain unchanged at ˜80/20. If instead, the new CMs originate from non-CM cells, they should be β-Gal^pos and produce a “dilution” of GFP^pos CMs with a decrease of the GFP^pos/β-Gal^pos CM ratio (FIG. 15A).
In mice, ISO injection caused the same type of myocardial damage and LV dysfunction shown in rats, resulting in c-kit^poseCSC activation, CM regeneration and recovery of cardiac function (FIG. 22). […] These numbers match the CM loss produced by ISO administration (FIG. 22). In contrast, we detected very few newly generated, BrdU^posβ-Gal^pos, CMs (0.15±0.05%) in saline-treated CTRL mice (FIG. 15E). […] This discrepancy might be due to the different injury models used. In contrast to coronary ligation, although ISO kills a large number of CMs, because it leaves a patent coronary circulation the eCSCs are spared and provides a more physiologic test for the endogenous reparative potential of the adult heart (Ellison et al., 2007b). Furthermore, during the two-week administration of tamoxifen for Cre induction it would be expected that some eCSCs have committed to the myogenic lineage and activated the Myh6 gene with recombination of the transgene and generation of […], as reported by Dong et al. (2012).
Finally, we dissociated to single cells CMs from the hearts of double transgenic MerCreMer:RYP mice obtained by crossing MerCreMer with R26R-EYFP (RYP) mice (Qian et al., 2012), in which the CMs were labeled with the enhanced yellow fluorescent protein (EYFP) upon tamoxifen injection. […]

mouse heart [2] = assay: ISO injury in Lenti-c-kit/Cre recombined RYP mice (c-kit^pos eCSC fate map); format: in vivo; settings: 28 days after ISO
[3] = tested on: rats with ISO+5-FU cardiomyopathy; assay: echocardiography after tail vein cell injection in ISO+5-FU cardiomyopathy; format: in vivo, rat; settings: (84 d) 3 months
[4] = tested on: rats with ISO+5-FU cardiomyopathy; assay: hemodynamic measurements (LV catheterization) after tail vein cell injection in ISO+5-FU cardiomyopathy; format: in vivo, rat; settings: (84 d) 3 months
[5] = tested on: adult myocytes isolated from Tg^c-kit/GFP mice; assay: ISO in vitro on adult myocytes isolated from Tg^c-kit/GFP mice; format: cell-based, mouse; settings: ISO 10 nM, cultured for 48 hrs

Structure (SMILES): CC(C)NCC(O)c1ccc(O)c(O)c1 (stereo not shown) [ISO, isoproterenol]
- BrdU^pos CMs (mouse heart [1]; MerCreMer/ZEG mice): 9±2%
- GFP^pos CMs (mouse heart [1]; MerCreMer/ZEG mice): 73.5±3.5%
- β-Gal^pos CMs (mouse heart [1]; MerCreMer/ZEG mice): 26.5±2%
- YFP-marked endogenous CMs (mouse heart [1]; MerCreMer:RYP mice, apex (and sub-endocardium)): ~72%
- newly-formed (BrdU^pos) CMs (mouse heart [2]): 9.5±2%
- YFP^pos cells in the unfixed CM preparation (FACS) (mouse heart [2]; LV apex): 8.3±1%
- EYFP positive CMs, % of total BrdU^pos CMs (mouse heart [2]; LV): 43±3%
- EYFP positive CMs, % of total BrdU^pos CMs (mouse heart [2]; apex): 74±7%
- YFP^pos cells in the unfixed CM preparation (FACS) (mouse heart [2]; total LV): 2.9±0.5%
- EF [3]: 88.6 ± 2.56%
- FS [3]: 51.7 ± 3.7%
- LVIDd [3]: 5.25 ± 0.42 mm
- LVIDs [3]: 2.53 ± 0.31 mm
- LVDevP [4]: 98.9 ± 10.6 mmHg
- LVEDP [4]: 2.2 ± 2.3 mmHg
- dP/dt+ [4]: 8344 ± 1294 mmHg/s
- dP/dt− [4]: 7936 ± 1072 mmHg/s
- ANP expression (fetal myocyte gene program) [5]: increased ANP expression
- c-kit/GFP transcription in adult myocytes [5]: unable to activate
